Experimental data reported in PubChem BioAssay (NCI).
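How tested: cells in 96-well plates exposed to compound for 48 hours at five concentrations. GI50: concentration for 50% inhibition of growth. The concentration for full growth arrest is given as TGI.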

Experiments:
Assay in all cases: NCI tumour cell line growth inhibition, 48 h
U251 CNS = tested on: U251 CNS
HOP-62 NSCLC = tested on: HOP-62 NSCLC
HCT-116 colon = tested on: HCT-116 colon
OVCAR-4 ovarian = tested on: OVCAR-4 ovarian
SNB-75 CNS = tested on: SNB-75 CNS
UACC-257 melanoma = tested on: UACC-257 melanoma
LOX IMVI melanoma = tested on: LOX IMVI melanoma
SF-539 CNS = tested on: SF-539 CNS
MCF7 breast = tested on: MCF7 breast
HS 578T breast = tested on: HS 578T breast

| Structure (SMILES) | TGI (U251 CNS) | TGI (HOP-62 NSCLC) | TGI (HCT-116 colon) | TGI (OVCAR-4 ovarian) | TGI (SNB-75 CNS) | TGI (UACC-257 melanoma) | TGI (LOX IMVI melanoma) | TGI (SF-539 CNS) | GI50 (MCF7 breast) | TGI (MCF7 breast) | GI50 (U251 CNS) | GI50 (HOP-62 NSCLC) | GI50 (HCT-116 colon) | GI50 (HS 578T breast) | TGI (HS 578T breast) | GI50 (UACC-257 melanoma) | GI50 (LOX IMVI melanoma) | GI50 (SF-539 CNS) | GI50 (OVCAR-4 ovarian) |
| --- | --- | --- | --- | --- | --- | --- | --- | --- | --- | --- | --- | --- | --- | --- | --- | --- | --- | --- | --- |
| Cc1c(Cl)ccc2[s+]snc12 | 70.2 µM | > 100 µM | 59 µM | > 100 µM | > 100 µM | 89.7 µM | 49.9 µM | 44.6 µM |  |  |  |  |  |  |  |  |  |  |  |
| COc1cc(Br)c(C2OCCCO2)cc1OCc1ccccc1 | > 100 µM | > 100 µM | > 100 µM | > 100 µM | > 100 µM |  | > 100 µM | > 100 µM |  |  |  |  |  |  |  |  |  |  |  |
| CC(C)CC(=O)O[C@H]1C(=O)O[C@@H]2C[C@H]3[C@H](C)C(=O)C(O[C@@H]4O[C@H](CO)[C@@H](O)[C@H](O)[C@H]4O)=C[C@]3(C)[C@H]3[C@@H](O)[C@H](O)[C@]4(C(=O)O)OC[C@]32[C@@H]14 | > 100 µM | > 100 µM | > 100 µM |  | > 100 µM | > 100 µM | > 100 µM | 53.3 µM | 28 µM | > 100 µM | 31.7 µM | 44.7 µM | 32.8 µM | 39.8 µM | > 100 µM | > 100 µM | 38.7 µM | 20.5 µM |  |
| Cc1nn(-c2ccccc2)c2c1[C@@H](C)[C@H]1CC3(CC4(C)C[C@@H]3C1(C)c1c(C)nn(-c3ccccc3)c1N4C)N2C (some centres not stated) |  | > 100 µM |  | > 100 µM |  |  |  | > 100 µM | 3.46 µM | > 100 µM |  | 18.3 µM |  | > 100 µM | > 100 µM |  |  | > 100 µM | 8.66 µM |
| O=C1N(c2ccccc2)C2(O)C(=O)c3ccccc3C2(O)N1c1ccccc1 (configuration not stated) | > 100 µM | > 100 µM | > 100 µM | > 100 µM | > 100 µM | > 100 µM | > 100 µM | > 100 µM |  |  |  |  |  |  |  |  |  |  |  |
| O=C(CC1(O)C(=O)Nc2ccc(Br)cc21)c1cccc([N+](=O)[O-])c1 (configuration not stated) | > 100 µM | > 100 µM |  | 67.1 µM | 97.2 µM | 78.6 µM | > 100 µM |  |  |  |  |  |  |  |  |  |  |  |  |
| CCN(CC)CCCC(C)Nc1ccnc2cc(OC)ccc12 (configuration not stated) | > 100 µM | 50.9 µM | 46 µM | 62.2 µM |  | 34.2 µM | > 100 µM | 34.4 µM | > 100 µM | > 100 µM | 42 µM | 21.2 µM | 29.2 µM | 26.3 µM | 66.3 µM | 18.2 µM | 29.5 µM | 19 µM | 22.6 µM |
| C/C(=N\NC(N)=S)c1ccc(Oc2ccccc2)cc1 | 31.3 µM | 46.6 µM | 22.6 µM | 16.8 µM | 33.6 µM |  | 34.5 µM | 17.6 µM |  |  |  |  |  |  |  |  |  |  |  |
| CC[C@H]1CNC(=O)CC1CC(=O)OC (some centres not stated) | > 100 µM | > 100 µM | > 100 µM | > 100 µM | > 100 µM | > 100 µM | > 100 µM | > 100 µM |  |  |  |  |  |  |  |  |  |  |  |
| Cc1cc(Br)ccc1N=NC1C(=O)ON=C1c1ccccc1 (configuration not stated) | > 100 µM | > 100 µM | > 100 µM | > 100 µM | > 100 µM | > 100 µM | > 100 µM | > 100 µM |  |  |  |  |  |  |  |  |  |  |  |
